{
  "source": "patent US11813264B2",
  "about": "“PAR1 modulation to alter myelination” (Mayo Foundation for Medical Education and Research, priority 2014, dated 2023)",
  "key": {"[1]": {"test_system": "primary oligodendrocyte cultures (3 DIV)", "assay": "Oligodendrocyte morphological differentiation scoring (simple, incomplete, complete, membrane), process and cell number", "format": "cell-based, mouse", "conditions": "24 hours", "procedure": "(§1) Oligodendrocyte Cultures: Purified cortical oligodendrocyte progenitor cells (OPCs) and differentiated oligodendrocytes were isolated from mixed glial cultures derived from postnatal day 1 mice (McCarthy and de Vellis, J Cell Blot 85:890-902, 1980). Glial cultures were grown in media containing DMEM, 2 mM Glutamax, 1 mM sodium pyruvate, 20 mM HEPES, and 10% heat-inactivated fetal calf serum (Atlanta Biologicals, Lawrenceville, GA). OPCs were isolated from 10 days-in-vitro (DIV) mixed glial cultures by overnight shaking and purified by differential adhesion. OPCs were seeded in defined Neurobasal A media containing 1% N2, 50 U/mL penicillin/streptomycin, 2 mM Glutamax, 1 mM sodium pyruvate, 0.45% glucose, and 50 μM β-mercaptoethanol (Sigma Aldrich, USA). OPCs were seeded at 3×10^4/cm^2 onto tissue culture plastic or 12 mm glass cover slips coated with poly-L-lysine (PLL, 10 μg/mL). After 24 h, cultures were 92-98% immunoreactive (IR) for sulfatide (O4) and by 72 hours at least 80% were also MBP-IR.\n(§2) PAR agonist-induced changes in oligodendrocyte morphology: To determine the effects of recombinant Klk6, Klk1, thrombin, or PAR1-AP on oligodendroglia, 3 DIV PAR1^+/+, PAR1^−/−, and PAR2^−/− oligodendrocytes, PAR1^+/+ OPCs immediately post purification, or Oli-neu cells were grown on cover slips in the presence of agonists for 24 h. For ATP toxicity assays, oligodendrocytes were incubated with ATP (50 μM, Sigma Aldrich) in the presence of Klk6 or Klk1. Following each treatment, oligodendrocyte and OPC cultures were immunolabeled for O4 to visualize the cell body and processes. Oli-neu processes were visualized by staining the actin cytoskeleton with Cy3-conjugated Phalloidin.\n(§3) To assess the effects of Klk6 and other PAR1 agonists on oligodendrocyte morphology and process stability, 20× digital micrographs were overlaid with a 780 μm^2 grid and ImageJ software 1.45r (National Institutes of Health) used to record cell number and the number of processes crossing horizontal grid lines (Scarisbrick et al., Brain 125:1283-1296, 2002). Data are expressed as the mean number of O4^+ or Phalloidin^+ processes per DAPI^+ cell (±SEM).\n(§4) The extent of oligodendrocyte morphological differentiation was determined by scoring O4^+/DAPI^+ oligodendrocyte morphology as simple (only primary processes, no secondary branching), incomplete (one or more primary process without secondary branching), complete (all primary processes with secondary branching), or membrane (complete secondary branching with membrane sheets) (Huang et al., Nat Neurosci 14:45-53, 2011). The mean number of cells in each morphology class was determined across treatments and expressed as percent of total O4^+/DAPI^+ cells.\n(§5) Changes in OPC or oligodendrocyte morphology were quantified from five microscopic fields per cover slip with the mean and SEM calculated across three cover slips per experiment. Each experiment was repeated at least twice using independent cultures. Analysis of oligodendrocyte morphology was performed without knowledge of treatment groups."}, "[2]": {"test_system": "rat primary oligodendrocytes", "conditions": "30 or 300 nM, 24 hours; cited from earlier work"}, "[3]": {"test_system": "oligodendrocyte progenitor cells (OPCs)", "assay": "OPC process outgrowth", "format": "cell-based, mouse", "conditions": "24 h", "procedure": "as §1, §2, §3, §5"}, "[4]": {"test_system": "PLP and MBP RNA expression", "assay": "Myelin gene expression (PLP, MBP RNA) in Oli-neu oligodendrocytes, quantitative RT-PCR", "format": "cell-based, mouse", "conditions": "24 hours", "procedure": "Oli-neu oligodendrocytes are derived from mouse primary oligodendrocyte cultures retrovirally transduced to constitutively express the t-neu oncogene (Jung et al., Eur J Neurosci 7:1245-1265, 1995). All morphology, signaling, and myelin gene expression studies using Oli-neu oligodendrocytes were performed in media containing DMEM, 1% N2, 2 mM Glutamax, 1 mM sodium pyruvate, 20 mM HEPES buffer, and 50 μM β-mercaptoethanol (Sigma Aldrich. To evaluate PAR and Klk6 gene expression in Oli-neu (Table 2), cells were differentiated by treatment with 1 mM N^6, 2′-O-dibutyryladenosine 3′, 5′-cyclic monophosphate disodium salt (dbcAMP) for 72 hours prior to harvesting for RNA isolation. All cells were maintained at 37° C. in 95% air and 5% CO2. Cell culture reagents were obtained from Life Technologies (Carlsbad, CA) unless otherwise indicated. All cell culture experiments were performed in triplicate and repeated at least twice.\nExpression of oligodendrocyte PARs and Klk6-real-time quantitative PCR: Total RNA was isolated from cultured cells using RNA STAT-60 (Tel-Test, Friendswood, TX). Klk6, PAR1, or PAR2 RNA expression was determined in 0.5 μg of RNA with the iScript one-step RT-PCR kit with SYBR® Green and the iCycler iQ5 system (BioRad, Hercules, CA). Transcript copy number was determined using a standard curve prepared by parallel amplification of cDNA clones diluted to known copy number (Christophi et al., J Neurochem 91:1439-1449, 2004). Amplification of the housekeeping gene glyceraldehyde phosphate 3-dehydrogenase (GAPDH) was used to control for loading. The mean and standard error (SEM) of transcript copy number was determined and data expressed as RNA copy number on a logarithmic scale.\nRegulation of oligodendrocyte myelin gene expression by PAR1 agonists: Primary murine oligodendrocytes (3 DIV) or Oli-neu oligodendrocytes were seeded at 3.5×10^5 cells/well in six-well tissue culture plates. Cells were then treated with Klk6 (30-300 nM), Klk1 (300 nM), thrombin (270 nM), or PAR1-AP (100 μM) for 24 hours prior to RNA isolation. Expression of myelin-associated genes, PLP, and MBP was examined by real-time quantitative RT-PCR. Expression levels of target genes were normalized to GAPDH and expressed as percent control."}, "[5]": {"test_system": "primary oligodendrocyte cultures (3 DIV)", "assay": "ATP toxicity assay in oligodendrocytes", "format": "cell-based, mouse", "procedure": "as §2, §3, §4, §5"}, "[6]": {"conditions": "co-application with ATP 50 μM, Klk6 150 nM"}},
  "data": [
    {"substance": "Klk6: Recombinant murine kallikrein-related peptidase 6 expressed using a baculovirus system", "values": [
      {"measurement": "number of incomplete oligodendrocyte morphologies", "setting": "[1]; 150 nM", "result": "greater than four-fold increase"},
      {"measurement": "number of simple oligodendrocyte morphologies", "setting": "[1]; 150 nM", "result": "two-fold increase"},
      {"measurement": "oligodendrocytes with complete morphology", "setting": "[1]; 150 nM", "result": "nearly eleven-fold decrease"},
      {"measurement": "oligodendroglia with membrane morphology", "setting": "[1]; 150 nM", "result": "elimination"},
      {"measurement": "oligodendrocyte number", "setting": "[1]; Klk6 150 nM, Klk1 300 nM", "result": "no significant effect"},
      {"measurement": "processes per cell", "setting": "[1]; Klk6 150 nM, Klk1 300 nM", "result": "two-fold fewer"},
      {"measurement": "process retraction and oligodendrocyte degeneration", "setting": "[2]", "result": "significant process retraction without oligodendrocyte degeneration"},
      {"measurement": "fewer processes per cell compared with controls", "setting": "[3]; 150 nM", "result": "~60", "unit": "%"},
      {"measurement": "number of OPCs", "setting": "[3]", "result": "significantly reduced"},
      {"measurement": "OPC process extension / outgrowth", "setting": "[3]; Klk6 150 nM, thrombin 135 nM, Klk1 150 nM", "result": "significantly fewer processes than thrombin treated cultures"},
      {"measurement": "MBP RNA", "setting": "[4]", "result": "no significant suppression"},
      {"measurement": "PLP RNA at 30, 150 and 300 nM", "setting": "[4]", "result": "significant and equivalent PLP RNA down regulation"},
      {"measurement": "PLP expression", "setting": "[4]; Klk6 300 nM, thrombin 270 nM, PAR1-AP 100 μM, Klk1 300 nM", "result": "significantly diminished"},
      {"measurement": "ATP-induced oligodendrocyte loss", "setting": "[5]; co-application with ATP", "result": "significant exacerbation"},
      {"measurement": "number of processes per oligodendrocyte", "setting": "[5]; co-application with ATP 50 μM", "result": "five-fold reduction"},
      {"measurement": "oligodendrocytes with membrane morphology", "setting": "[5]; co-application with ATP 50 μM", "result": "complete loss"},
      {"measurement": "oligodendroglia with mature complete morphology", "setting": "[5]; co-application with ATP 50 μM", "result": "complete loss"},
      {"measurement": "increase in oligodendrocytes with incomplete morphologies compared with vehicle or ATP alone", "setting": "[5]; [6]", "result": "greater than 40%"},
      {"measurement": "percentage of oligodendrocytes with simple morphology relative to ATP alone", "setting": "[5]; [6]", "result": "further increasing"}
    ]}
  ]
}
